Measured values: patent US9284315B2, “Three-ring PI3K and/or mTOR inhibitor” (XUANZHU PHARMA CO., LTD., priority 2011, dated 2016)
Several values for one entry are separate records, joined by “and”; a condition that tells them apart may be missing. Equal values may be shown once.

How the values were obtained:
mTOR = mTOR (Homo sapiens (Human), UniProt P42345); assay: mTOR inhibitory activity, Method 1 activity test; format: biochemical; details: 4EBP1 50 nM, ATP 10.8 μM
Experimental: Determination of the Inhibitory Activity of mTOR
(§1) 1. Preparation of test reagents
(1) 1× kinase buffer (50 mM HEPES, pH 7.5, 10 mM MgCl2, 1 mM EGTA, 3 mM MnCl, 0.01% Tween-20, 2 mM DTT);
(2) 4× kinase solution (added mTOR kinase to 1× kinase buffer to provide 4× kinase solution with a final concentration of 2.5 nM);
(3) 2× substrate solution (added the substrates of 4EBP1 and ATP into 1× kinase buffer to provide 2× substrate solution with 4EBP1 final concentration of 50 nM and ATP final concentration of 10.8 μM);
(4) 4× test substance solutions (100× test substance solutions with different concentration gradients were prepared using 100% DMSO, and diluted 25-fold with 1× kinase buffer to give 4× test substance solutions with different concentration gradients)
(5) preparation of test solution (test solution containing EDTA and 4EBP1 phosphorylated antibody was prepared using activity test kit with assay buffer, the final concentration of EDTA was 8 mM, and the final concentration of 4EBP1 phosphorylated antibody was 2 nM)
(§2) 2. 2.5 μL of 4× test solution was added to a 384-well plate in parallel;
(§3) 3. added […] of 4× kinase solution and incubated for 10 min;
4. then added 5 μL of 2× solutions of 4EBP1 and ATP substrates and incubated for 1 h at room temperature;
5. finally, added 10 μL of test solution to quench the reaction, and read after 60 min;
(§4) 6. IC50 value was obtained via curve fitting. Inhibition rate (%)=(sample value−minimum)/(maximum−minimum)×100
Minimum refers to the readings of control wells without enzyme, maximum refers to the readings of DMSO control wells.
(§5) IC50 value was obtained via curve fitting using a soft of Graphpad 5.0.

PI3Kα = PI3Kα (Homo sapiens (Human), UniProt P42336); assay: PI3K inhibitory activity, Method 1 activity test; format: biochemical; details: PIP2 50 μM, ATP 25 μM
Experimental: Determination of the inhibitory activity of PI3K
as §1
(1) 1× kinase buffer (50 mM HEPES, pH 7.5, 3 mM MgCl2, 1 mM EGTA, 100 mM NaCl, 0.03% CHAPS, 2 mM DTT);
(2) 4× kinase solution (added PI3K a kinase to 1× kinase buffer to provide 4× kinase solution with a final concentration of 1.65 nM);
(3) 2× substrate solution (added the substrates of PIP2 and ATP into 1× kinase buffer to provide 2× substrate solution with PIP2 final concentration of 50 μM and ATP final concentration of 25 μM);
(4) 4× test substance solutions (100× test substance solutions with different concentration gradients were prepared using 100% DMSO, and diluted 25-fold with 1× kinase buffer to give 4× test substance solutions with different concentration gradients);
(5) Invitrogen's activity test kit with the test solution was kept stand to room temperature.
as §2, §3
4. then added 5 μL of 2× solutions of PIP2 and ATP substrates and incubated for 1 h at room temperature;
5. finally, added 10 μL of test solution to quench the reaction, and read after 15 min;
as §4
Maximum refers to the readings of control wells without enzyme, minimum refers to the readings of DMSO control wells.
as §5

U87MG = assay: Cell viability assay by XTT method, U87MG; format: cell-based; details: Homo sapiens, U-87 MG
Experimental: (§6) 1. Preparation of Reagents and Compounds
(§7) 2) Preparation of XTT test working solution:
(§8) 100 mg of tetrazolium salt (XTT) powder was weighed and dissolved in dark in 300 mL of phenol red-free serum-free RPMI1640 medium heated to 50° C., filtered and subpackaged, used immediately or within a week. All process should be conducted in dark.
(§9) 3) Preparation of test compounds
(§10) preparation of stock solutions of the test substances: the powder of test substances was dissolved in DMSO in a concentration of 10 mM.
(§11) preparation of gradiently diluted stock solutions of test substances: First, 10 mM of the stock solutions of test substances were diluted serially in 4-fold with DMSO to 10 concentrations. 2 μL of DMSO-diluted solution for each compound was taken and added to 998 μL of culture medium containing 10% fetal bovine serum (FBS). The highest concentration of the test substances was 20 μM, the concentration of DMSO was 0.2%, and there were 10 concentration gradients in total.
(§12) 1) Preparation of cell suspension
(§13) The culture medium was discarded from the flask, and the cells were washed twice with PBS. Added trypsinase to digest the cell and then collected by centrifugation, resuspended with a medium containing 10% FBS, counted and adjusted to an appropriate concentration (cell viability must be greater than 90%). The cell concentration was […].
(§14) 2) The cell suspension was added to 96-well plates, each well 100 μL.
(§15) 3) Incubated in a cell incubator overnight at 37° C., 5% CO2.
(§16) Added compound diluted 2-fold to the cell culture plates, three repeated in total, 100 μL well.
(§17) 5. Cell Viability Assay by XTT Method
(§18) Discarded the culture medium, added XTT test working liquid in an amount of 150 μL well, and kept in a cell incubator at 37° C., 5% CO2 for 2 h, then placed into a microplate reader and read the absorbance at 450 nm.
(§19) 1) The percentage of inhibition was calculated using the following formula: Inhibition rate (%)=(reading(solvent)−reading(compound))/reading(solvent)−reading(positive control))×100
(§20) 2) The data was entered into GraphPad Prism 5.0 and plotted to obtain the curve and IC50.

SKOV-3 = assay: Cell viability assay by XTT method, SKOV-3; format: cell-based; details: Homo sapiens, SK-OV-3
Experimental: as §6, §7, §8, §9, §10, §11, §12, §13, §14, §15, §16, §17, §18, §19, §20

[1] = In vivo pharmacokinetics in rats, gavage (PO); details: male, SD, rat, plasma, 4 mg/kg
[2] = In vivo pharmacokinetics in rats, intravenous bolus injection (IV); details: 2 mg/kg; for AUC / half-life: male, SD, rat, plasma, iv; for Cl_obs / Vss_obs: rats, IV
SD rats = assay: Repeated-dose toxicity test in rats; format: in vivo; details: 14 days; for hair loss (animals affected) / lassitude (animals affected) / loose stools (animals affected): gavage once daily, 20 rats
Experimental: The test substances were suspended in 0.5% methylcellulose solution to prepare suspensions with a concentration of 0.5 mg/mL, 1.5 mg/mL and 3 mg/mL.
Animals: SD rats, 6-8 weeks old, SPF grade, purchased from Beijing Vital River Laboratory Animal Technology Co., Ltd., licensed […] No: SCXK (Beijing) 2006-0009.
The test substances were administrated as a suspension via gavage, and administrating volume was 10 mL/kg. 0.5% methyl cellulose solution was used in the solvent group, and the administrating volume was 10 mL/kg, administered once daily for consecutive 14 days. Animals were observed daily appearance and general behavior changes.

Chain of PI3Kα (P42336 whole entry): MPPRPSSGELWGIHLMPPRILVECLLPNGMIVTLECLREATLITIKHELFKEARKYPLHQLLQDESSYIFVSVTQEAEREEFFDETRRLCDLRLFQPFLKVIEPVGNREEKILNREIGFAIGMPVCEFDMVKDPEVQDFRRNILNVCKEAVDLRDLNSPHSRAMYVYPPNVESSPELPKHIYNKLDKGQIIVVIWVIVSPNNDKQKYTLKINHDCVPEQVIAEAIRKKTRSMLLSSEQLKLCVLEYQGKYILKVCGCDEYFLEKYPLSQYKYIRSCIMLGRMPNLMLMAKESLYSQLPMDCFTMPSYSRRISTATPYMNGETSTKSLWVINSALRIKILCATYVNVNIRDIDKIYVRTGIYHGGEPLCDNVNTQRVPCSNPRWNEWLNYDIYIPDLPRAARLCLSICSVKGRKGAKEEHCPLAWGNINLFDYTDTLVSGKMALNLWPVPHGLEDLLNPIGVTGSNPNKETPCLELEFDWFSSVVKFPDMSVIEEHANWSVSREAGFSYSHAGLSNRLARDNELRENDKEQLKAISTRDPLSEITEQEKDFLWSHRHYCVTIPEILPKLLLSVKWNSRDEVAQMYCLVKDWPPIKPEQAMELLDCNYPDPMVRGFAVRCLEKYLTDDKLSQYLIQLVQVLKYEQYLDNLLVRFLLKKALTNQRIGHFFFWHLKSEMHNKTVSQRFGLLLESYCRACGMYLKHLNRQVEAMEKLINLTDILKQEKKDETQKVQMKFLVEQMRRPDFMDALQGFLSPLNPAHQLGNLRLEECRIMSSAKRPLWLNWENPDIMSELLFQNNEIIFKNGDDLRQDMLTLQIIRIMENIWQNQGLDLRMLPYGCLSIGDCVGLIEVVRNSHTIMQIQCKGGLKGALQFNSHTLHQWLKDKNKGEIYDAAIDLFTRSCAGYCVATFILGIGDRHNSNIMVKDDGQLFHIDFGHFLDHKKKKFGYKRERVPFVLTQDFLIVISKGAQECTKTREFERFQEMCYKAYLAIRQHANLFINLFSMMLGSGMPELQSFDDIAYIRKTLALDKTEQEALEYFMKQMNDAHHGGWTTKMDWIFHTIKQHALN
Chain of PI3Kα (P27986 whole entry partner): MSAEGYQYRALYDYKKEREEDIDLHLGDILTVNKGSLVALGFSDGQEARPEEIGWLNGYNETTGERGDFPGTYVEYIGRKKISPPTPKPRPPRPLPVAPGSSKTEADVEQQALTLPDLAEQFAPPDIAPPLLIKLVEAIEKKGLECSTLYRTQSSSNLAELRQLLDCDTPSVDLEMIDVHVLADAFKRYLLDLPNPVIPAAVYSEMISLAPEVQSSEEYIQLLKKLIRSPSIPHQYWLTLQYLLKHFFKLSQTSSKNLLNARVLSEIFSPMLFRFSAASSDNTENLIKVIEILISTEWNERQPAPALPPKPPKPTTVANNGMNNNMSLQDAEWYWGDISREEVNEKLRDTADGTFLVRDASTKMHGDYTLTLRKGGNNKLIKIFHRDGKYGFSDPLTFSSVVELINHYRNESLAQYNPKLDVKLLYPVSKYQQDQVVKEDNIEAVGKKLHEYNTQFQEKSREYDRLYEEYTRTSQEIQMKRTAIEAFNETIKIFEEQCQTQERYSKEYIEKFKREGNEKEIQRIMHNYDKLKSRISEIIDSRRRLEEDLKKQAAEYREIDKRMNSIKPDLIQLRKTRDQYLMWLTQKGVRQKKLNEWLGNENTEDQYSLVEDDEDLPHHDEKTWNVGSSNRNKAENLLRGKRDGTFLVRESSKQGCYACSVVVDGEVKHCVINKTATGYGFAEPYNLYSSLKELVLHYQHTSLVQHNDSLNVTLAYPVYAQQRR

SMILES | IC50 (mTOR) [µM] | IC50 (PI3Kα) [µM] | IC50 (U87MG) [µM] | IC50 (SKOV-3) [µM] | AUC [1] [µg·h/mL] | Cmax [1] [µg/mL] | bioavailability [1] [%] | AUC [2] [µg·h/mL] | half-life [2] [h] | Cl_obs [2] [L/h/kg] | Vss_obs [2] [L/kg] | other results
CN1Cc2cnc3ccc(-c4ccc(-n5cccn5)nc4)nc3c2N(c2cccc(C(F)(F)F)c2)C1=O [Compound 9] | 0.0437 | 0.873 | – | – | – | – | – | – | – | – | – | –
COc1ccc(-c2ccc3ncc4c(c3n2)N(c2ccc(C(C)(C)C#N)cc2)C(=O)N(C)C4)cn1 [Compound 30, 2-(4-(9-(6-methoxypyridin-3-yl)-3-methyl-2-oxo-3,4-dihydropyrimido[5,4-c][1,5]naphthyridin-1(2H)-yl)phenyl)-2-methylpropionitrile] | – | – | 0.499 | 0.349 | – | – | – | – | – | – | – | –
COc1ccc(-c2ccc3ncc4c(c3n2)N(c2cccc(C(F)(F)F)c2)C(=O)N(C)C4)cn1 [Compound 2] | 0.0543 | 0.0884 | – | – | – | – | – | – | – | – | – | –
CSc1ccc(-c2ccc3ncc4c(c3n2)N(c2cccc(C(F)(F)F)c2)C(=O)N(C)C4)cn1 [Compound 8] | 0.0765 | 0.26 | – | – | – | – | – | – | – | – | – | –
CN1Cc2cnc3ccc(-c4cnc5ccccc5c4)nc3c2N(c2ccc(N3CCNCC3)c(C(F)(F)F)c2)C1=O [Compound 80] | – | – | 0.279 | 0.542 | – | – | – | – | – | – | – | –
CC(=O)Nc1ccc(-c2ccc3ncc4c(c3n2)N(c2cccc(C(F)(F)F)c2)C(=O)N(C)C4)cn1 [Compound 7, N-(5-(3-methyl-2-oxo-1-(3-(trifluoromethyl)phenyl)-1,2,3,4-tetrahydropyrimido[5,4-c][1,5]naphthyridin-9-yl)pyridin-2-yl)acetamide] | 0.0387 | 0.0293 | 0.901 | 0.895 | 0.0634 | 0.0349 | 11.6 | 0.275 | 0.47 | 7.42 | 4.45 | Tmax [1]: 0.5 h; half-life [1]: 1.7 h
CN1Cc2cnc3ccc(-c4cnc5ccccc5c4)nc3c2N(c2ccc(C(C)(C)C#N)cc2)C1=O [Compound 52] | 0.0665 | 0.154 | 0.436 | 0.467 | – | – | – | – | – | – | – | –
Cn1c(=O)n(-c2ccc(C(C)(C)C#N)cc2)c2c3cc(-c4cnc5ccccc5c4)ccc3ncc21 [BEZ-235, reference compound] | – | – | – | – | 2.18 | 0.229 | 77.4 | 1.44 | 3.19 | 1.38 | 5.93 | Tmax [1]: 2.83 h; half-life [1]: 4.08 h; hair loss (animals affected) (SD rats; high dose 30 mg/kg/day): three and 3/20; lassitude (animals affected) (SD rats; high dose 30 mg/kg/day): 0/20; loose stools (animals affected) (SD rats; high dose 30 mg/kg/day): fifteen and 15/20; hair loss (animals affected) (SD rats; low dose 5 mg/kg/day): 0/20; lassitude (animals affected) (SD rats; low dose 5 mg/kg/day): 0/20; loose stools (animals affected) (SD rats; low dose 5 mg/kg/day): six and 6/20; hair loss (animals affected) (SD rats; middle dose 15 mg/kg/day): 0/20; lassitude (animals affected) (SD rats; middle dose 15 mg/kg/day): 0/20; loose stools (animals affected) (SD rats; middle dose 15 mg/kg/day): seven and 7/20

The next lines start with results.

IC50 (mTOR) [µM] | IC50 (PI3Kα) [µM] | IC50 (U87MG) [µM] | IC50 (SKOV-3) [µM] | AUC [1] [µg·h/mL] | Cmax [1] [µg/mL] | bioavailability [1] [%] | AUC [2] [µg·h/mL] | half-life [2] [h] | Cl_obs [2] [L/h/kg] | Vss_obs [2] [L/kg] | SMILES | other results
0.0085 | 0.0033 | 0.437 | 0.89 | 0.402 | 0.147 | 26.3 | 0.735 | 2.08 | 2.84 | 2.97 | CN1Cc2cnc3ccc(-c4cnc(N)nc4)nc3c2N(c2cccc(C(F)(F)F)c2)C1=O [Compound 14, 9-(2-aminopyrimidin-5-yl)-3-methyl-1-(3-(trifluoromethyl)phenyl)-3,4-dihydropyrimido[5,4-c][1,5]naphthyridin-1(2H)-one] | Tmax [1]: 0.5 h; half-life [1]: 1.39 h
0.0175 | 0.0102 | 0.275 | 0.551 | – | – | – | 0.357 | 0.72 | 5.57 | 5.28 | CN1Cc2cnc3ccc(-c4cnc5[nH]ccc5c4)nc3c2N(c2cccc(C(F)(F)F)c2)C1=O [Compound 22, 3-methyl-9-(1H-pyrrolo[2,3-b]pyridin-5-yl)-1-(3-(trifluoromethyl)phenyl)-3,4-dihydropyrimido[5,4-c][1,5]naphthyridin-1(2H)-one] | –
0.024 | 0.0338 | – | – | – | – | – | – | – | – | – | CN1Cc2cnc3ccc(-c4ccc(C#N)nc4)nc3c2N(c2cccc(C(F)(F)F)c2)C1=O [Compound 6] | –
0.00886 | 0.0104 | 0.0847 | 0.155 | 1.38 | 0.198 | 40.4 | 1.7 | 6.48 | 1.14 | 5.6 | CN1Cc2cnc3ccc(-c4ccc(N)nc4)nc3c2N(c2cccc(C(F)(F)F)c2)C1=O [Compound 3] | half-life [1]: 5.33 h; hair loss (animals affected) (SD rats; high dose 30 mg/kg/day): one and 1/20; lassitude (animals affected) (SD rats; high dose 30 mg/kg/day): four and 4/20; loose stools (animals affected) (SD rats; high dose 30 mg/kg/day): one and 1/20; abnormal vital signs (SD rats; low dose 5 mg/kg/day): no animals with abnormal vital signs; hair loss (animals affected) (SD rats; low dose 5 mg/kg/day): 0/20; lassitude (animals affected) (SD rats; low dose 5 mg/kg/day): 0/20; loose stools (animals affected) (SD rats; low dose 5 mg/kg/day): 0/20; hair loss (animals affected) (SD rats; middle dose 15 mg/kg/day): 0/20; lassitude (animals affected) (SD rats; middle dose 15 mg/kg/day): 0/20; loose stools (animals affected) (SD rats; middle dose 15 mg/kg/day): one and 1/20
0.00199 | 0.0419 | – | – | 0.852 | 0.0611 | 28 | 1.52 | 4.8 | 1.3 | 8.72 | COc1ccc(-c2ccc3ncc4c(c3c2)n(-c2ccc(N3CCNCC3)c(C(F)(F)F)c2)c(=O)n4C)cn1 [BGT-226, reference compound] | Tmax [1]: 6 h
0.0303 | 0.021 | – | – | – | – | – | – | – | – | – | COc1ncc(-c2ccc3ncc4c(c3n2)N(c2cccc(C(F)(F)F)c2)C(=O)N(C)C4)cn1 [Compound 13] | –
0.0312 | 0.496 | – | – | – | – | – | – | – | – | – | CN1CCN(c2ccc(-c3ccc4ncc5c(c4n3)N(c3cccc(C(F)(F)F)c3)C(=O)N(C)C5)cn2)CC1 [Compound 11] | –
